Results: ChEMBL document CHEMBL1909046, “DrugMatrix in vitro pharmacology data”

Assays:
[1] = biological target: Beta-1 adrenergic receptor (Homo sapiens, UniProt P08588); experiment: DRUGMATRIX: Adrenergic beta1 radioligand binding (ligand: [125I] Cyanopindolol); type: cell membranes, CHO-K1, Membrane; conditions: cho-k1; Not Active = under 50% inhibition at 10 µM
[2] = biological target: T1, 5-hydroxytryptamine receptor 2C (Homo sapiens, UniProt P28335); experiment: DRUGMATRIX: Serotonin (5-Hydroxytryptamine) 5-HT2C radioligand binding (ligand: [3H] Mesulergine); type: cell membranes, CHO-K1, Membrane; conditions: cho-k1; Not Active = under 50% inhibition at 10 µM
T1 sequence (P28335 whole entry): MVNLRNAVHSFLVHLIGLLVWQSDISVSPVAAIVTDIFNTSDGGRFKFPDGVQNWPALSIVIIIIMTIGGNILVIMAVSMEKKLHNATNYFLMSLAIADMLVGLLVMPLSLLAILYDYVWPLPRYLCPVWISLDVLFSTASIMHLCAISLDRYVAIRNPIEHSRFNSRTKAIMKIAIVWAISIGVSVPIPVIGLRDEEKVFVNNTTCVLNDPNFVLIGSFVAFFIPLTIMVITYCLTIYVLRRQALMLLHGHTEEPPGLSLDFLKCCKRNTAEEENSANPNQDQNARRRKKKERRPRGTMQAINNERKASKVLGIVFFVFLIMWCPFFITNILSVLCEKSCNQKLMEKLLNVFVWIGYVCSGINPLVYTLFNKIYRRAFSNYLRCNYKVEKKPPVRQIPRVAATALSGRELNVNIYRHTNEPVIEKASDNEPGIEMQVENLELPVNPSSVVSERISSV

[3] = biological target: Sigma non-opioid intracellular receptor 1 (Homo sapiens, UniProt Q99720); experiment: DRUGMATRIX: Sigma1 radioligand binding (ligand: [3H] Haloperidol); type: cell membranes, Jurkat, Membrane; conditions: jurkat; Not Active = under 50% inhibition at 10 µM
Sequence of Sigma non-opioid intracellular receptor 1 (Q99720 whole entry): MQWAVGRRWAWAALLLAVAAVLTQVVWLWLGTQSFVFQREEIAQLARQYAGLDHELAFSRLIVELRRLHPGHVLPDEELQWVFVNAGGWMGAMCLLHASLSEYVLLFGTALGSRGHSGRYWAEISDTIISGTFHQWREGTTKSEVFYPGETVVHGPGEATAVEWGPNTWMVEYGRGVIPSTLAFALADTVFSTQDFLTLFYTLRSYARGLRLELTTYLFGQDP

[4] = biological target: Vascular endothelial growth factor receptor 1 (Homo sapiens, UniProt P17948); type: cell-based; conditions: huvec; further: in other assays of this panel Not Active means under 50% inhibition at 10 µM
Sequence of Vascular endothelial growth factor receptor 1 (P17948 whole entry): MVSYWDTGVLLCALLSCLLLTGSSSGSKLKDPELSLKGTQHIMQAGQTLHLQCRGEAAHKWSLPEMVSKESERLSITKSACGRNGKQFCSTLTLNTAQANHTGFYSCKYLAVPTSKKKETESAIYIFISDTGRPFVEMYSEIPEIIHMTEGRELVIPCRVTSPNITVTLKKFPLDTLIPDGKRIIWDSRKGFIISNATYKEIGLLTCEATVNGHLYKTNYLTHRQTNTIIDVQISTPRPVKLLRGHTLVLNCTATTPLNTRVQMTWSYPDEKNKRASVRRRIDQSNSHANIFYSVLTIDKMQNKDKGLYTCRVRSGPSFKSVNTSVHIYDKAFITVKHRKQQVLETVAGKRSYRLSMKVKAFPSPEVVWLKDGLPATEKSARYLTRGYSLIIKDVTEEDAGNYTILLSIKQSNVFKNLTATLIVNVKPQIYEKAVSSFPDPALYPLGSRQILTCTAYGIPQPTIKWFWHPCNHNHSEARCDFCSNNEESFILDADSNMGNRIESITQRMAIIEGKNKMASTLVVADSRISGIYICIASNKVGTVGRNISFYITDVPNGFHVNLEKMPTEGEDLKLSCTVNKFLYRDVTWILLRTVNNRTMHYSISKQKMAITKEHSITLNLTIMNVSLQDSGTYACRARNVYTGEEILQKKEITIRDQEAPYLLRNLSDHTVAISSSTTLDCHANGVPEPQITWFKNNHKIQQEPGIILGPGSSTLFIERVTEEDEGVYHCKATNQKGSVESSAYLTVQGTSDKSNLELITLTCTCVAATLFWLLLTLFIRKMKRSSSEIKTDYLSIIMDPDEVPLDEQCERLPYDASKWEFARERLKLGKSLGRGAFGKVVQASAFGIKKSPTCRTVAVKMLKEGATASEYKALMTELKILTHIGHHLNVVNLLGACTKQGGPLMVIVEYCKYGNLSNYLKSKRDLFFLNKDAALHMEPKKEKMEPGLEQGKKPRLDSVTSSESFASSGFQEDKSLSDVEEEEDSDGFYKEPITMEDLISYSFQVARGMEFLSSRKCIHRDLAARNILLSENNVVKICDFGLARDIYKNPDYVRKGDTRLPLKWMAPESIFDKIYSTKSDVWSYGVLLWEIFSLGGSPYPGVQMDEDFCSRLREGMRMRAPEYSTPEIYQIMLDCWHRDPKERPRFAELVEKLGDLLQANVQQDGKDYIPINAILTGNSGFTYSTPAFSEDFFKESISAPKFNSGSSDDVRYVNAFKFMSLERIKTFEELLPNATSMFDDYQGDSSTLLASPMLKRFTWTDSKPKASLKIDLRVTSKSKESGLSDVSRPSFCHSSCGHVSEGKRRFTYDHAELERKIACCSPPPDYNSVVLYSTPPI

Cannabinoid receptor 1 = Cannabinoid receptor 1 (Homo sapiens, UniProt P21554); type: cell membranes, Membrane; conditions: chem-1; further: in other assays of this panel Not Active means under 50% inhibition at 10 µM
Sequence of Cannabinoid receptor 1 (P21554 whole entry): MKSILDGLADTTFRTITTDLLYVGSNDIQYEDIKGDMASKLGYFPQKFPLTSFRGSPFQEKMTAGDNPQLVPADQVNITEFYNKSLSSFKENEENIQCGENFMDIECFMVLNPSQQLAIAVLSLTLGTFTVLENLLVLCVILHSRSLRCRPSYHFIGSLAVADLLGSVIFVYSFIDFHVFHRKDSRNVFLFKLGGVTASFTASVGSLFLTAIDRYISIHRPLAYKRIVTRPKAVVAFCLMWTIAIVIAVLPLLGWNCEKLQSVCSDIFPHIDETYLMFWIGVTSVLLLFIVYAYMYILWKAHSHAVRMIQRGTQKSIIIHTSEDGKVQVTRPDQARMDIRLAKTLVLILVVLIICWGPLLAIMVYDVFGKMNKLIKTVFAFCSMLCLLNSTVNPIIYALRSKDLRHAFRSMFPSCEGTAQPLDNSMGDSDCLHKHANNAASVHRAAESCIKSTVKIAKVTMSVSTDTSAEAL

[5] = biological target: T2, C-X-C chemokine receptor type 1 (Homo sapiens, UniProt P25024); further: in other assays of this panel Not Active means under 50% inhibition at 10 µM
T2 sequence (P25024 whole entry): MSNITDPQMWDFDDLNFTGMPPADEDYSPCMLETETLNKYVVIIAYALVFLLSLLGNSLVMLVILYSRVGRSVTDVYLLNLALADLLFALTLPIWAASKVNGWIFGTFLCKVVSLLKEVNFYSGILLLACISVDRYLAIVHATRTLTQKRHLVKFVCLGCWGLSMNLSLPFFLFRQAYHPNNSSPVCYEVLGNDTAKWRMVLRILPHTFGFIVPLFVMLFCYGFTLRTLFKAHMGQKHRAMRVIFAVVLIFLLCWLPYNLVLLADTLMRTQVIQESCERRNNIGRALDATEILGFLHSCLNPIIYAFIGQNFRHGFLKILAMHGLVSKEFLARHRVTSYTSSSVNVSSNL

[6] = biological target: T3, C-X-C chemokine receptor type 2 (Homo sapiens, UniProt P25025); type: cell membranes, Membrane; conditions: cho-k1; further: in other assays of this panel Not Active means under 50% inhibition at 10 µM
T3 sequence (P25025 whole entry): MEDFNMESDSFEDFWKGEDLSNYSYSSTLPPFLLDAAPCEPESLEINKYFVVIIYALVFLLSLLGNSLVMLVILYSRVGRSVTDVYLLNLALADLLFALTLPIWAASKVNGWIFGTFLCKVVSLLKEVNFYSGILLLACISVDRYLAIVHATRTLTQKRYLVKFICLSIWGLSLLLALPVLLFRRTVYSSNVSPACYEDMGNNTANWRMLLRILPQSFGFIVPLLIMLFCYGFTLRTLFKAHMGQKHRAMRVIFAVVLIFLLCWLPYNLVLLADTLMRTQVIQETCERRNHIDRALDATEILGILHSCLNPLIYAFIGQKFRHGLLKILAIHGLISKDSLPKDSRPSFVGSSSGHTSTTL

[7] = DRUGMATRIX: Glutamate, NMDA, Phencyclidine radioligand binding (ligand: [3H] TCP); type: cell membranes, Rattus norvegicus, Wistar, Cerebral cortex, Membrane; conditions: Not Active = under 50% inhibition at 10 µM
[8] = DRUGMATRIX: Imidazoline I2, Central radioligand binding (ligand: [3H] Idazoxan); type: cell membranes, Rattus norvegicus, Wistar, Cerebral cortex, Membrane; conditions: Not Active = under 50% inhibition at 10 µM
Insulin receptor = Insulin receptor (Rattus norvegicus, UniProt P15127); type: cell membranes, Wistar, Liver, Membrane; further: in other assays of this panel Not Active means under 50% inhibition at 10 µM
[9] = DRUGMATRIX: Interleukin IL-1 radioligand binding (ligand: [125I] interleukin 1beta); type: cell membranes, Membrane; conditions: nih3t3; Not Active = under 50% inhibition at 10 µM
[10] = DRUGMATRIX: Leukotriene, BLT (LTB4) radioligand binding (ligand: [3H]LTB4); type: cell membranes, Membrane; conditions: u-937; Not Active = under 50% inhibition at 10 µM
[11] = biological target: Delta-type opioid receptor (Homo sapiens, UniProt P41143); type: cell membranes, HEK293, Membrane; conditions: hek293; further: in other assays of this panel Not Active means under 50% inhibition at 10 µM
Sequence of Delta-type opioid receptor (P41143 whole entry): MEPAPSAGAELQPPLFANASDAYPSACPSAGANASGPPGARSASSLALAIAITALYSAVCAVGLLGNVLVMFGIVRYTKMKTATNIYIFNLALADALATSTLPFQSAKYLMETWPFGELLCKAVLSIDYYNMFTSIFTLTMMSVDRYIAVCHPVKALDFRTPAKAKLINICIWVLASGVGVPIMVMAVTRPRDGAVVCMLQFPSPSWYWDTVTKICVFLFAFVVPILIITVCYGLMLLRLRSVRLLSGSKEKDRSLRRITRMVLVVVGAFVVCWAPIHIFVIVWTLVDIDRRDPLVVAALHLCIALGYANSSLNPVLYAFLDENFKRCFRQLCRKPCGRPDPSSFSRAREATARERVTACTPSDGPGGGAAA

[12] = DRUGMATRIX: Phorbol Ester radioligand binding (ligand: [3H] PDBu); type: cell membranes, Mus musculus, ICR, Brain, Membrane; conditions: Not Active = under 50% inhibition at 10 µM
Neutrophil elastase = biological target: T4, Neutrophil elastase (Homo sapiens, UniProt P08246); type: tissue-based
T4 sequence (P08246 whole entry): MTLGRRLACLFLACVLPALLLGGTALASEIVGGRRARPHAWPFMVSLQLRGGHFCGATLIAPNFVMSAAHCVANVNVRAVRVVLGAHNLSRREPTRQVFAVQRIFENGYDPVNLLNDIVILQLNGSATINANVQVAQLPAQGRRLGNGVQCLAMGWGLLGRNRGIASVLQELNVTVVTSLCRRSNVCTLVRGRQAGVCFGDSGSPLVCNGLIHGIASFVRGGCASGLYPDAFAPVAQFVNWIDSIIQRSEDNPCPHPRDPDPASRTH

[13] = biological target: Mitogen-activated protein kinase 14 (Homo sapiens, UniProt Q16539); set-up: species or system Escherichia coli
Sequence of Mitogen-activated protein kinase 14 (Q16539 whole entry): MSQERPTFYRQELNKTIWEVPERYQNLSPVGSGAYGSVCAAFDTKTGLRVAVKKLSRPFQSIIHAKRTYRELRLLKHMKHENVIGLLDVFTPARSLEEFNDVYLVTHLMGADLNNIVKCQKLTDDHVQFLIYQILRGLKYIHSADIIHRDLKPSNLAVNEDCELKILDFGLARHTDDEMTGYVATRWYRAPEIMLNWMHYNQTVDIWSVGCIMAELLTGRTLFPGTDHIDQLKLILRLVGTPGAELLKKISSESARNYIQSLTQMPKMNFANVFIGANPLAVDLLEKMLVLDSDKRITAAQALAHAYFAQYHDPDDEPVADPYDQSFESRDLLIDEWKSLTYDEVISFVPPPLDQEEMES

[14] = biological target: Tyrosine-protein kinase Fyn (Homo sapiens, UniProt P06241); experiment: biochemical; type: cell-based, Insect cells; conditions: insect cells
Sequence of Tyrosine-protein kinase Fyn (P06241 whole entry): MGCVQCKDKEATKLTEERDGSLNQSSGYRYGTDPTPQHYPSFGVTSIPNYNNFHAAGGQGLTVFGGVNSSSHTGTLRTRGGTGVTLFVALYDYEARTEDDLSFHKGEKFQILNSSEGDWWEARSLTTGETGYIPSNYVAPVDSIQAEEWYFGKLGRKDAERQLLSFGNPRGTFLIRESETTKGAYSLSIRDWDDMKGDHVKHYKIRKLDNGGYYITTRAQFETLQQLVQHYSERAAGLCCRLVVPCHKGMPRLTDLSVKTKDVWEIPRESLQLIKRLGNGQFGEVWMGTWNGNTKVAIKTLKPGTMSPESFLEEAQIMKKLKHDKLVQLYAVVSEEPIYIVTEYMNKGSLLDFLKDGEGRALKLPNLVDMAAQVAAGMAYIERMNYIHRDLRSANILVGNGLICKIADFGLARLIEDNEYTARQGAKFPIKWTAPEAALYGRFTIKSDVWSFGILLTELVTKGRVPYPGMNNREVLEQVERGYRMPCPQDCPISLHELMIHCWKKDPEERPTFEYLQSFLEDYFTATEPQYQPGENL

[15] = biological target: Tyrosine-protein kinase Lck (Homo sapiens, UniProt P06239); experiment: DRUGMATRIX: Protein Tyrosine Kinase, LCK enzyme inhibition (substrate: Poly(Glu:Tyr)); type: cell-based, Insect cells; conditions: insect cells; Not Active = under 50% inhibition at 10 µM
Sequence of Tyrosine-protein kinase Lck (P06239 whole entry): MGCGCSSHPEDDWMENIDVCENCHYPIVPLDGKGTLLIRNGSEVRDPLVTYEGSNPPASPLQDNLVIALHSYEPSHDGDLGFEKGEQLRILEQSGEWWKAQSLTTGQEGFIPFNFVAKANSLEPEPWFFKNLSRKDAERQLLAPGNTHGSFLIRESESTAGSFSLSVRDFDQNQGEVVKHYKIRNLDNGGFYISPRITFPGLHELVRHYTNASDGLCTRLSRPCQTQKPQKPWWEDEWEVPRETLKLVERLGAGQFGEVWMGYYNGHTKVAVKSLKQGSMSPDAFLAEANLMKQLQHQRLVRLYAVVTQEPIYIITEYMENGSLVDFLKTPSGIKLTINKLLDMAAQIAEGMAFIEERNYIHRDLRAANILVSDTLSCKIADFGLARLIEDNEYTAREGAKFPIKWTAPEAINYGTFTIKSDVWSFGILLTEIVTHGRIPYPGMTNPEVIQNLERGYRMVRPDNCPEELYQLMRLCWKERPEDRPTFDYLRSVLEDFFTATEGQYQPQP

Sequence of Beta-1 adrenergic receptor (P08588 whole entry): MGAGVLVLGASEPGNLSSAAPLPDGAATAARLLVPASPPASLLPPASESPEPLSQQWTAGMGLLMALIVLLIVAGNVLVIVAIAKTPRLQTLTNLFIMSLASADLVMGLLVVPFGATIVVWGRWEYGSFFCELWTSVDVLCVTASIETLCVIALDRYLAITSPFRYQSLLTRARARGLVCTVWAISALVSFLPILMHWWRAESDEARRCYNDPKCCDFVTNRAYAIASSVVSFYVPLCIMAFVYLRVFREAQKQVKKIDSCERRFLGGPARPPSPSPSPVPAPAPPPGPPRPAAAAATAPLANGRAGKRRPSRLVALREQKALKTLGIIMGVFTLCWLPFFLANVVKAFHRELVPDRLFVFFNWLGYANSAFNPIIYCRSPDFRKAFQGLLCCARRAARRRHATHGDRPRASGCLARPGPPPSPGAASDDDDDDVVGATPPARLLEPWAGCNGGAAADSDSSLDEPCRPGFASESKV

Compound	IC50 [1]	IC50 [2]	IC50 [3]	IC50 [4]	IC50 (Cannabinoid receptor 1)	IC50 [5]	IC50 [6]	IC50 [7]	Ki [7]	IC50 [8]	Ki [8]	IC50 (Insulin receptor)	IC50 [9]	Ki [9]	IC50 [10]	Ki [10]	IC50 [11]	IC50 [12]	Ki [12]	IC50 (Neutrophil elastase)	other results
GOLD SODIUM THIOMALATE	Not Active	Not Active	Not Active	Not Active	Not Active	Not Active	Not Active	Not Active	Not Active	Not Active	Not Active	Not Active	Not Active	Not Active	Not Active	Not Active	Not Active	Not Active	Not Active	Not Active	Ki [1]: Not Active; Ki [2]: Not Active; Ki [3]: Not Active; Ki [4]: Not Active; Ki (Cannabinoid receptor 1): Not Active; Ki [5]: Not Active; Ki [6]: Not Active; Ki (Insulin receptor): Not Active; Ki [11]: Not Active; Ki (Neutrophil elastase): Not Active; IC50 [13]: Not Active; Ki [13]: Not Active; IC50 ([14]; read-out: IC50): 0.811 µM; IC50 [15]: Not Active; Ki [15]: Not Active
CCc1cccc2c3c([nH]c12)C(CC)(CC(=O)O)OCC3 (stereo not drawn) [ETODOLAC]	Not Active	Not Active	Not Active	Not Active	Not Active	Not Active	Not Active	Not Active	Not Active	Not Active	Not Active	Not Active	Not Active	Not Active	Not Active	Not Active	Not Active	Not Active	Not Active	Not Active	IC50 [13]: Not Active; IC50 [14]: Not Active; IC50 [15]: Not Active
CN(C)[C@@H]1C(O)=C(C(N)=O)C(=O)[C@@]2(O)C(O)=C3C(=O)c4c(O)cccc4[C@@](C)(O)[C@H]3[C@H](O)[C@@H]12 [OXYTETRACYCLINE]	Not Active	Not Active	Not Active	Not Active	Not Active	Not Active	Not Active	Not Active	Not Active	Not Active	Not Active	Not Active	Not Active	Not Active	Not Active	Not Active	Not Active	Not Active	Not Active	Not Active	IC50 [13]: Not Active; IC50 [14]: Not Active; IC50 [15]: Not Active
CCCSc1ccc2nc(NC(=O)OC)[nH]c2c1 [ALBENDAZOLE]	Not Active	Not Active	Not Active	Not Active	Not Active	Not Active	Not Active	Not Active	Not Active	Not Active	Not Active	Not Active	Not Active	Not Active	Not Active	Not Active	Not Active	Not Active	Not Active	Not Active	IC50 [13]: Not Active; IC50 [14]: Not Active; IC50 [15]: Not Active
OXALIPLATIN	Not Active	Not Active	Not Active	Not Active	Not Active	Not Active	Not Active	Not Active	Not Active	Not Active	Not Active	Not Active	Not Active	Not Active	Not Active	Not Active	Not Active	Not Active	Not Active	Not Active	Ki [1]: Not Active; Ki [2]: Not Active; Ki [3]: Not Active; Ki [4]: Not Active; Ki (Cannabinoid receptor 1): Not Active; Ki [5]: Not Active; Ki [6]: Not Active; Ki (Insulin receptor): Not Active; Ki [11]: Not Active; Ki (Neutrophil elastase): Not Active; IC50 [13]: Not Active; Ki [13]: Not Active; IC50 [14]: Not Active; Ki [14]: Not Active; IC50 [15]: Not Active; Ki [15]: Not Active
Oc1cccc2cccnc12 [OXYQUINOLINE]	Not Active	Not Active	Not Active	Not Active	Not Active	Not Active	Not Active	Not Active	Not Active	Not Active	Not Active	Not Active	Not Active	Not Active	Not Active	Not Active	Not Active	Not Active	Not Active	Not Active	IC50 [13]: Not Active; IC50 [14]: Not Active; IC50 [15]: Not Active
